# Measured values: patent US20090069320A1, “Substituted 4-Amino-Quinazoline Compounds with Metabotropic Glutamate Receptor Regulating Activity and Uses Thereof” (Gruenenthal GmbH, priority 2006, published 2009)
# Counter-ions that a name gives are not always drawn.
# Molecular target: T1, mGluR5 receptor (Sus scrofa, UniProt I3LUI7)
# T1 construct: 450 μg of protein from brain homogenate with 5 nM ^3[H]-MPEP; from tissue; host or cells: pig brain halves without medulla, cerebellum and pons
# Assay: [3H]-MPEP mGluR5 receptor binding assay (pig brain homogenate)
# Details: 5 nM [3H]-MPEP, read-out: IC50 mGluR5 Receptor (pig) [^3H]-MPEP Bond
# Outline: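 Radioligand displacement of 5 nM [3H]-MPEP from pig brain homogenate (450 μg protein; medulla, cerebellum and pons removed) in 20 mM Hepes pH 8.0. Compounds were tested at 10 μM, incubated 60 min at room temperature, then filtered and counted by scintillation. Non-specific binding was defined with 10 μM MPEP.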
# T1 sequence (I3LUI7 19-1212): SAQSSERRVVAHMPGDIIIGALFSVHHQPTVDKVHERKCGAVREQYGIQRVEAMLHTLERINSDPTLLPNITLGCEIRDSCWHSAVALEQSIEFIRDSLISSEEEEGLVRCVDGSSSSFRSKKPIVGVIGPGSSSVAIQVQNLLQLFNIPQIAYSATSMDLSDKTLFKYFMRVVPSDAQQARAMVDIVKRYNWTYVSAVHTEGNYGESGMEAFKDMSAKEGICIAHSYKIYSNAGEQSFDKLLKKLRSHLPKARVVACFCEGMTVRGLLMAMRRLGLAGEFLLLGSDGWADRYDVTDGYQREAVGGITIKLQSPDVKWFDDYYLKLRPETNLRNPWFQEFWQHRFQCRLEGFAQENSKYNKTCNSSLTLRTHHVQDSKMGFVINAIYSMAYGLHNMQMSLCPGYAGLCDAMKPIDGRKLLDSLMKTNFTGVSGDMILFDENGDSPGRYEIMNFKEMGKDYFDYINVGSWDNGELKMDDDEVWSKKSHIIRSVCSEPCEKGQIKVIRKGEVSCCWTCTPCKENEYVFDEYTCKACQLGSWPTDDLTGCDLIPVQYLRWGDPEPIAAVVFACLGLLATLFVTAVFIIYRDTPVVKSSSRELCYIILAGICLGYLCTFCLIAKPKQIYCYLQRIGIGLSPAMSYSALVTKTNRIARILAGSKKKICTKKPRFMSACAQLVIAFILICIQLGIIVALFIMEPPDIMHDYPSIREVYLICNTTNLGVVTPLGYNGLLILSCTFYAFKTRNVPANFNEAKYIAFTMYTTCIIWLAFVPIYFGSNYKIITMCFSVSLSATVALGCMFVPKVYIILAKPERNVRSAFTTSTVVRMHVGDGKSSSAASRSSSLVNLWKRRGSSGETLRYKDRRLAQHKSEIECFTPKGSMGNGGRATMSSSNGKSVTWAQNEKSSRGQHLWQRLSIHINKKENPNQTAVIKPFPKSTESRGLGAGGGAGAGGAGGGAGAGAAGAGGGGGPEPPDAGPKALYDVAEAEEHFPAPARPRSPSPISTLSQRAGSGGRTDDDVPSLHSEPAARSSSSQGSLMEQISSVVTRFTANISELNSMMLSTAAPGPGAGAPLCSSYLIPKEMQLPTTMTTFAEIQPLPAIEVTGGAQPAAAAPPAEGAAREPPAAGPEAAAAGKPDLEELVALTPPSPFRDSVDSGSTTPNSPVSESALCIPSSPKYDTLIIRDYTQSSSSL
row,IC50 [nM],Compound
1,3080,"O=C1C2CCCCC2C(=O)N1Cc1cccc(-c2ccc3ncnc(NC4CC4)c3c2)c1 (centres unmarked) [Example 242, 2-[3-(4-cyclopropylamino-quinazolin-6-yl)-benzyl]-hexahydro-isoindole-1,3-dione hydrochloride]"
2,60,"O=C1CCC(=O)N1Cc1cccc(-c2ccc3ncnc(NC4CCCC4)c3c2)c1 [Example 287, 1-(3-(4-(cyclopentylamino)quinazolin-6-yl)benzyl)pyrrolidine-2,5-dione hydrochloride]"
3,2640,"O=S(=O)(c1ccc(C(F)(F)F)cc1)N(Cc1cccc(-c2ccc3ncnc(NC4CC4)c3c2)c1)C1CC1 [Example 226, N-cyclopropyl-N-(3-(4-(cyclopropylamino)quinazolin-6-yl)benzyl)-4-(trifluoromethyl)benzole sulfonamide]"
4,210,"O=C1COCC(=O)N1Cc1cc(-c2ccc3ncnc(NC4CC4)c3c2)ccc1F [Example 189, 4-(5-(4-(cyclopropylamino)quinazolin-6-yl)-2-fluorobenzyl)morpholine-3,5-dione]"
5,500,"O=C1CCC(=O)N1Cc1cc(F)cc(-c2ccc3ncnc(NC4CC4)c3c2)c1 [Example 889, 1-(3-(4-(cyclopropylamino)quinazolin-6-yl)-5-fluorobenzyl)pyrrolidine-2,5-dione]"
6,90,"COC(=O)N(Cc1cccc(-c2ccc3ncnc(NC4CC4)c3c2)c1)C1CC1 [Example 898, methyl cyclopropyl(3-(4-(cyclopropylamino)quinazolin-6-yl)benzyl)carbamate]"
7,510,"O=C1CCCN1Cc1cccc(-c2ccc3ncnc(NC4CC4)c3c2)c1 [Example 217, 1-[3-(4-cyclopropylamino-quinazolin-6-yl)-benzyl]-pyrrolidine-2-one; hydrochloride]"
8,670,"CC(=O)N(Cc1cccc(-c2ccc3ncnc(NC4CC4)c3c2)c1F)C1CC1 [Example 191, N-cyclopropyl-N-(3-(4-(cyclopropylamino)quinazolin-6-yl)-2-fluorobenzyl)acetamide]"

# Same assay, conditions: 10 μM compound, 5 nM [3H]-MPEP
row,% Inhibition of mGluR5 Receptor (pig) [^3H]-MPEP Bond at 10 μM [%],Compound
1,48,"CC(C)(C)Nc1ncnc2ccc(-c3ccc(F)c(CN(C(=O)c4cc(Cl)cc(Cl)c4)C4CC4)c3)cc12 [Example 820, N-(5-(4-(tert-butylamino)quinazolin-6-yl)-2-fluorobenzyl)-3,5-dichloro-N-cyclopropyl benzamide]"
2,85,"O=S(=O)(c1ccccc1)N(Cc1cc(-c2ccc3ncnc(NC4CC4)c3c2)ccc1F)C1CC1 [Example 368, N-cyclopropyl-N-(5-(4-(cyclopropylamino)quinazolin-6-yl)-2-fluorobenzyl)benzole sulfonamide]"
3,98,"CC(C)(C)Nc1ncnc2ccc(-c3ccc(F)c(CN(C(=O)c4ccccn4)C4CC4)c3)cc12 [Example 826, N-(5-(4-(tert-butylamino)quinazolin-6-yl)-2-fluorobenzyl)-N-cyclopropyl picolinamide]"
4,34,"O=S(=O)(c1cccc(C(F)(F)F)c1)N(Cc1cc(-c2ccc3ncnc(NC4CC4)c3c2)ccc1F)C1CC1 [Example 375, N-cyclopropyl-N-(5-(4-(cyclopropylamino)quinazolin-6-yl)-2-fluorobenzyl)-3-(trifluoromethyl)benzole sulfonamide]"

# Same assay, conditions: 10 μM compound, 5 nM [3H]-MPEP, read-out: % Inhibition of mGluR5 Receptor (pig) [^3H]-MPEP Bond at 10 μM
row,inhibition at 10 µM [%],Compound
1,84,"O=C(c1cccs1)N(Cc1cccc(-c2ccc3ncnc(NC4CC4)c3c2)c1)C1CC1 [Example 178, thiophene-2-carboxylic acid cyclopropyl-[3-(4-cyclopropylamino-quinazolin-6-yl)-benzyl]-amide]"
2,90,"Cc1nc(C(=O)N(Cc2cccc(-c3cc(F)c4ncnc(NC5CC5)c4c3)c2)C2CC2)cs1 [Example 830, N-cyclopropyl-N-(3-(4-(cyclopropylamino)-8-fluoroquinazolin-6-yl)benzyl)-2-methylthiazole-4-carboxamide]"
3,95,"CN(c1ncnc2ccc(-c3ccc(F)c(CN(C(=O)c4cccs4)C4CC4)c3)cc12)C1CC1 [Example 427, N-cyclopropyl-N-(5-(4-(cyclopropyl(methyl)amino)quinazolin-6-yl)-2-fluorobenzyl)thiophene-2-carboxamide]"
4,45,"CCCCC(=O)N(Cc1cc(-c2ccc3ncnc(NC4CC4)c3c2)ccn1)C1CC1 [Example 829, N-cyclopropyl-N-((4-(4-(cyclopropylamino)quinazolin-6-yl)pyridin-2-yl)methyl)pentanamide]"
5,45,"O=C(c1ccc(C(F)(F)F)cc1F)N(Cc1ccccc1)Cc1cccc(-c2ccc3ncnc(NC4CC4)c3c2)c1 [Example 152, N-benzyl-N-[3-(4-cyclopropylamino-quinazolin-6-yl)-benzyl]-2-fluoro-4-trifluoromethyl-benzamide]"
6,38,"CC(C)Nc1ncnc2ccc(-c3cccc(CN(Cc4ccccc4)C(=O)CC#N)c3)cc12 [Example 53, N-benzyl-2-cyano-N-[3-(4-isopropylamino-quinazolin-6-yl)-benzyl]-acetamide]"
7,50,"CCCC(=O)N(CCC)Cc1cccc(-c2ccc3ncnc(Nc4ccccc4)c3c2)c1 [Example 115, N-[3-(4-phenylamino-quinazolin-6-yl)-benzyl]-N-propyl-butyramide]"
8,74,"CC(=O)N(Cc1cc(-c2ccc3ncnc(NC4CC4)c3c2)ccn1)C1CC1 [Example 773, N-cyclopropyl-N-((4-(4-(cyclopropylamino)quinazolin-6-yl)pyridin-2-yl)methyl)acetamide]"
9,39,"CC(=O)OCN(Cc1cccc(-c2ccc3ncnc(NC4CC4)c3c2)c1)C(C)=O [Example 203, {acetyl-[3-(4-cyclopropylamino-quinazolin-6-yl)-benzyl]-amino}-methyl acetate]"
10,91,"O=C(c1ccc(C(F)(F)F)cc1F)N(Cc1cc(-c2ccc3ncnc(NC4CC4)c3c2)ccc1Cl)C1CC1 [Example 800, N-(2-chloro-5-(4-(cyclopropylamino)quinazolin-6-yl)benzyl)-N-cyclopropyl-2-fluoro-4-(trifluoromethyl)benzamide]"
11,37,"O=C(C1CCCCC1)N(Cc1cc(-c2ccc3ncnc(NC4CC4)c3c2)ccc1Cl)C1CC1 [Example 741, N-(2-chloro-5-(4-(cyclopropylamino)quinazolin-6-yl)benzyl)-N-cyclopropylcyclohexane carboxamide]"
12,94,"Cc1nc(C(=O)N(Cc2cc(-c3ccc4ncnc(NC5CC5)c4c3)ccc2F)C2CC2)cs1 [Example 605, N-cyclopropyl-N-(5-(4-(cyclopropylamino)quinazolin-6-yl)-2-fluorobenzyl)-2-methylthiazole-4-carboxamide]"
13,67,"COCCNc1ncnc2ccc(-c3cccc(CN4C(=O)CCC4=O)c3)cc12 [Example 867, 1-(3-(4-(2-methoxyethylamino)quinazolin-6-yl)benzyl)pyrrolidine-2,5-dione hydrochloride]"
14,31,"Cc1cc2ncnc(NC3CC3)c2cc1-c1cccc(CN(C2CC2)S(=O)(=O)c2cccc3cccnc23)c1 [Example 683, N-cyclopropyl-N-(3-(4-(cyclopropylamino)-7-methylquinazolin-6-yl)benzyl)quinoline-8-sulfonamide]"
15,89,"Cc1cc2ncnc(NC3CC3)c2cc1-c1cccc(CN(C(=O)c2cccs2)C2CC2)c1 [Example 698, N-cyclopropyl-N-(3-(4-(cyclopropylamino)-7-methylquinazolin-6-yl)benzyl)thiophene-2-carboxamide]"
16,34,"Cc1cc(C(=O)N(Cc2cccc(-c3ccc4ncnc(NCCc5ccccc5)c4c3)c2)C2CC2)n(C)n1 [Example 369, N-cyclopropyl-1,3-dimethyl-N-(3-(4-(phenethylamino)quinazolin-6-yl)benzyl)-1H-pyrazole-5-carboxamide]"
17,63,"CC(=O)N(Cc1cccc(-c2ccc3ncnc(NC4CC4)c3c2)c1)C1CCCC1 [Example 209, N-cyclopentyl-N-(3-(4-(cyclopropylamino)quinazolin-6-yl)benzyl)acetamide]"
18,31,"CCCN(Cc1cccc(-c2ccc3ncnc(Nc4ccccc4)c3c2)c1)C(=O)c1ccsc1 [Example 108, thiophene-3-carboxylic acid [3-(4-phenylamino-quinazolin-6-yl)-benzyl]-propyl-amide]"
19,32,"CC(C)CN(Cc1cccc(-c2ccc3ncnc(N4CCOCC4)c3c2)c1)C(=O)CN(C)C [Example 31, 2-dimethylamino-N-isobutyl-N-[3-(4-morpholin-4-yl-quinazolin-6-yl)-benzyl]-acetamide]"
20,89,"Cc1cc2ncnc(NC3CC3)c2cc1-c1cccc(CN(C(=O)Cc2ccccc2)C2CC2)c1 [Example 661, N-cyclopropyl-N-(3-(4-(cyclopropylamino)-7-methylquinazolin-6-yl)benzyl)-2-phenylacetamide]"
21,88,"O=C(c1ccc(F)cc1F)N(Cc1cc(-c2ccc3ncnc(NC4CC4)c3c2)ccc1Cl)C1CC1 [Example 792, N-(2-chloro-5-(4-(cyclopropylamino)quinazolin-6-yl)benzyl)-N-cyclopropyl-2,4-difluorobenzamide]"
22,66,"Cc1cc2ncnc(NC3CC3)c2cc1-c1cccc(CN(C(=O)C2CCCCC2)C2CC2)c1 [Example 653, N-cyclopropyl-N-(3-(4-(cyclopropylamino)-7-methylquinazolin-6-yl)benzyl)cyclohexane carboxamide]"

# Same assay, conditions: IC50 mGluR5 Receptor (pig) [^3H]-MPEP Bond, 5 nM [3H]-MPEP
row,Compound,IC50 [nM]
1,"ClCCNCc1cccc(-c2ccc3ncnc(NC4CC4)c3c2)c1 [Example 315, 6-(3-((2-chloroethylamino)methyl)phenyl)-N-cyclopropylquinazoline-4-amine]",2740
